For 21 compounds, IC50 results are on record in patent US12187723B2 (BRISTOL-MYERS SQUIBB COMPANY, priority 2019, dated 2025).

The assay concerns the target T1, human TLR9 (Homo sapiens, UniProt Q9NR96).
T1 construct: host or cells: HEK-Blue cells
T1 sequence (Q9NR96 26-1032): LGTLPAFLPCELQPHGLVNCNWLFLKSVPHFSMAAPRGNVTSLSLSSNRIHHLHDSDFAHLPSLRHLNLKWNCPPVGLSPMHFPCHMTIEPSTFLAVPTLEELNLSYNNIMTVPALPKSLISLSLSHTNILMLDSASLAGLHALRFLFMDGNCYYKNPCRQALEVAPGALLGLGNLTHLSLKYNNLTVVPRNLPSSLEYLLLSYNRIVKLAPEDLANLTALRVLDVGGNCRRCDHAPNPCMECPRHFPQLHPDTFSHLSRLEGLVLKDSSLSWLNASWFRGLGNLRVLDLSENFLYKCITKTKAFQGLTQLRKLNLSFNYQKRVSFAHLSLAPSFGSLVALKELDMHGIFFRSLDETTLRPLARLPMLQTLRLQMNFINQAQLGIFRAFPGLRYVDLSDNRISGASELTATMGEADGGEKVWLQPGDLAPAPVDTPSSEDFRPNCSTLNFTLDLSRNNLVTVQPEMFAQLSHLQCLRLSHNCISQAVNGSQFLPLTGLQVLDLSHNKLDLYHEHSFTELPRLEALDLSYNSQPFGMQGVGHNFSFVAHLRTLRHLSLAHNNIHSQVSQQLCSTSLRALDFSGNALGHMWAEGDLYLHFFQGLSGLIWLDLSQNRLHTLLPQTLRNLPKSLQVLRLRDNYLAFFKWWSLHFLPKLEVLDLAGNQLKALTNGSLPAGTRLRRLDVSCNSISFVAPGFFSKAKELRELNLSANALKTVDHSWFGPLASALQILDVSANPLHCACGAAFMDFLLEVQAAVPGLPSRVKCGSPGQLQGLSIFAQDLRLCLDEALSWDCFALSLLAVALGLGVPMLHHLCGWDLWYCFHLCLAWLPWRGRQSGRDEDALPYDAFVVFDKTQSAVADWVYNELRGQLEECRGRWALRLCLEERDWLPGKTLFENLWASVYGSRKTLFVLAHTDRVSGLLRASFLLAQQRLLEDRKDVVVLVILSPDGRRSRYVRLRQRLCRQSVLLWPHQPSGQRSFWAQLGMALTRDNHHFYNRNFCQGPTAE
Description: TLR9 inhibition reporter assay (HEK-Blue SEAP). In kind it is cell-based. The note with it: HEK-Blue cells overexpressing human TLR9, ODN2006 5 nM, 22 hour incubation. The procedure: TLR7/8/9 Inhibition Reporter Assays
HEK-Blue™-cells (Invivogen) overexpressing human TLR7, TLR8 or TLR9 receptors were used for screening inhibitors of these receptors using an inducible SEAP (secreted embryonic alkaline phosphatase) reporter gene under the control of the IFN-β minimal promoter fused to five NF-κB and AP-1-binding sites. Briefly, cells are seeded into Greiner 384 well plates (15000 cells per well for TLR7, 20,000 for TLR8 and 25,000 for TLR9) and then treated with test compounds in DMSO to yield a final dose response concentration range of 0.05 nM-50 μM. After a 30 minute compound pre-treatment at room temperature, the cells are then stimulated with a TLR7 ligand (gardiquimod at a final concentration of 7.5 μM), TLR8 ligand (R848 at a final concentration of 15.9 μM) or TLR9 ligand (ODN2006 at a final concentration of 5 nM) to activate NF-κB and AP-1 which induce the production of SEAP. After a 22 hour incubation at 37° C., 5% CO2, SEAP levels are determined with the addition of HEK-Blue™ Detection reagent (Invivogen), a cell culture medium that allows for detection of SEAP, according to manufacturer's specifications. The percent inhibition is determined as the % reduction in the HEK-Blue signal present in wells treated with agonist plus DMSO alone compared to wells treated with a known inhibitor.
`CCC(CC)CN1CCC[C@@H](n2c(=O)[nH]c3cc(-c4cc(OC)c5ncnn5c4)c(C(C)C)cc32)C1` [Example 148, (R)-1-(1-(2-ethylbutyl)piperidin-3-yl)-6-isopropyl-5-(8-methoxy-[1,2,4]triazolo[1,5-a]pyridin-6-yl)-1,3-dihydro-2H-benzo[d]imidazol-2-one]: half-maximal inhibition (IC50) required 9.61 µM.

On to `COc1cc(-c2cc3[nH]c(=O)n(C4CCN(CC(C)C)CC4)c3cc2C(C)C)cn2ncnc12` [Example 164, 1-(1-isobutylpiperidin-4-yl)-6-isopropyl-5-(8-methoxy-[1,2,4]triazolo[1,5-a]pyridin-6-yl)-1,3-dihydro-2H-benzo[d]imidazol-2-one], for which the IC50 (usually the midpoint of a concentration-inhibition curve) came out at 17.2 µM.

`COc1cc(-c2cc3[nH]c(=O)n([C@@H]4CCCN(CC5CC5)C4)c3cc2C(C)C)cn2ncnc12` [Example 142, (R)-1-(1-(cyclopropylmethyl)piperidin-3-yl)-6-isopropyl-5-(8-methoxy-[1,2,4]triazolo[1,5-a]pyridin-6-yl)-1,3-dihydro-2H-benzo[d]imidazol-2-one] came in with an IC50 of 6.02 µM.

Take `CCN1CCC[C@@H](n2c(=O)[nH]c3cc(-c4cc(OC)c5ncnn5c4)c(C(F)(F)F)cc32)C1` [Example 110, (R)-1-(1-ethylpiperidin-3-yl)-5-(8-methoxy-[1,2,4]triazolo[1,5-a]pyridin-6-yl)-6-(trifluoromethyl)-1,3-dihydro-2H-benzo[d]imidazol-2-one]: half-maximal inhibition (IC50) was put at 7.82 µM.

`CCN1CCC(n2c(=O)[nH]c3cc(-c4cc(C)c5ncnn5c4)cc(C)c32)CC1` [Example 108, 1-(1-ethylpiperidin-4-yl)-7-methyl-5-(8-methyl-[1,2,4]triazolo[1,5-a]pyridin-6-yl)-1,3-dihydro-2H-benzo[d]imidazol-2-one] registered an IC50 of 1.16 µM.

For the compound `Cc1c(-c2cc3[nH]c(=O)n([C@@H]4CCCN(CC5CCOCC5)C4)c3cc2C(C)C)cn2ncnc2c1C` [Example 149, (R)-5-(7,8-dimethyl-[1,2,4]triazolo[1,5-a]pyridin-6-yl)-6-isopropyl-1-(1-((tetrahydro-2H-pyran-4-yl)methyl)piperidin-3-yl)-1,3-dihydro-2H-benzo[d]imidazol-2-one], the IC50 was determined as 15.7 µM.

Compound `COCCN1CCC[C@@H](n2c(=O)[nH]c3cc(-c4cc(OC)c5ncnn5c4)c(C(F)(F)F)cc32)C1` [Example 118, (R)-5-(8-methoxy-[1,2,4]triazolo[1,5-a]pyridin-6-yl)-1-(1-(2-methoxyethyl)piperidin-3-yl)-6-(trifluoromethyl)-1,3-dihydro-2H-benzo[d]imidazol-2-one] registered an IC50 of 18.1 µM.

Turning to `Cc1cc2c(cc1-c1cc(C)c3ncnn3c1)[nH]c(=O)n2C1CCN(C(=O)CN(C)C)CC1` [Example 101, 1-(1-(dimethylglycyl)piperidin-4-yl)-6-methyl-5-(8-methyl-[1,2,4]triazolo[1,5-a]pyridin-6-yl)-1,3-dihydro-2H-benzo[d]imidazol-2-one], 2.58 µM corresponded to half-maximal inhibition (IC50).

Compound `COc1cc(-c2cc3[nH]c(=O)n([C@H]4CCCN(CC5CCC5)C4)c3cc2C(C)C)cn2ncnc12` [Example 133, (S)-1-(1-(cyclobutylmethyl)piperidin-3-yl)-6-isopropyl-5-(8-methoxy-[1,2,4]triazolo[1,5-a]pyridin-6-yl)-1,3-dihydro-2H-benzo[d]imidazol-2-one] came in with an IC50 of 7.14 µM.

Turning to `COc1cc(-c2cc3[nH]c(=O)n([C@@H]4CCCN(C(C)C)C4)c3cc2C(C)C)cn2ncnc12` [Example 137, (R)-6-isopropyl-1-(1-isopropylpiperidin-3-yl)-5-(8-methoxy-[1,2,4]triazolo[1,5-a]pyridin-6-yl)-1,3-dihydro-2H-benzo[d]imidazol-2-one], the IC50 came to 7.07 µM. This IC50 and that of the compound before are within 1.5-fold of each other.

`COc1cc(-c2cc3[nH]c(=O)n([C@H]4CCCN(CC(C)C)C4)c3cc2C(C)C)cn2ncnc12` [Example 129, (S)-1-(1-isobutylpiperidin-3-yl)-6-isopropyl-5-(8-methoxy-[1,2,4]triazolo[1,5-a]pyridin-6-yl)-1,3-dihydro-2H-benzo[d]imidazol-2-one] returned an IC50 of 3.69 µM.

Take `COc1cc(-c2cc3[nH]c(=O)n(C4CCN(C5CCOC5)CC4)c3cc2C(C)C)cn2ncnc12` (stereo not drawn) [Example 162, 6-isopropyl-5-(8-methoxy-[1,2,4]triazolo[1,5-a]pyridin-6-yl)-1-(1-(tetrahydrofuran-3-yl)piperidin-4-yl)-1,3-dihydro-2H-benzo[d]imidazol-2-one]: the IC50 was greater than 50 µM.

For `COc1cc(-c2cc3[nH]c(=O)n([C@@H]4CCCN(C5COC5)C4)c3cc2C(F)(F)F)cn2ncnc12` [Example 113, (R)-5-(8-methoxy-[1,2,4]triazolo[1,5-a]pyridin-6-yl)-1-(1-(oxetan-3-yl)piperidin-3-yl)-6-(trifluoromethyl)-1,3-dihydro-2H-benzo[d]imidazol-2-one], the IC50 is greater than 50 µM.

In turn, `Cc1cc2c(cc1-c1cc(C)c3ncnn3c1)[nH]c(=O)n2[C@@H]1CCCN(CC#N)C1` [Example 96, (R)-2-(3-(6-methyl-5-(8-methyl-[1,2,4]triazolo[1,5-a]pyridin-6-yl)-2-oxo-2,3-dihydro-1H-benzo[d]imidazol-1-yl)piperidin-1-yl)acetonitrile] came in with an IC50 of 8.64 µM.

The compound `COc1cc(-c2cc3[nH]c(=O)n([C@H]4CCCN(CC5CCOC5)C4)c3cc2C(C)C)cn2ncnc12` (stereo partly drawn) [Example 126, 6-isopropyl-5-(8-methoxy-[1,2,4]triazolo[1,5-a]pyridin-6-yl)-1-((3S)-1-((tetrahydrofuran-3-yl)methyl)piperidin-3-yl)-1,3-dihydro-2H-benzo[d]imidazol-2-one] showed an IC50 of 27.8 µM.

The compound `CCN1CCC[C@@H](n2c(=O)[nH]c3cc(-c4cc(OC)c5ncnn5c4)c(C(C)C)cc32)C1` [Example 138, (R)-1-(1-ethylpiperidin-3-yl)-6-isopropyl-5-(8-methoxy-[1,2,4]triazolo[1,5-a]pyridin-6-yl)-1,3-dihydro-2H-benzo[d]imidazol-2-one] registered an IC50 of 17.9 µM.

The compound `COc1cc(-c2cc3[nH]c(=O)n([C@H]4CCCN(C5CCOCC5)C4)c3cc2C(C)C)cn2ncnc12` [Example 124, (S)-6-isopropyl-5-(8-methoxy-[1,2,4]triazolo[1,5-a]pyridin-6-yl)-1-(1-(tetrahydro-2H-pyran-4-yl)piperidin-3-yl)-1,3-dihydro-2H-benzo[d]imidazol-2-one] returned an IC50 of 20.8 µM.

Regarding `COc1cc(-c2cc3[nH]c(=O)n([C@@H]4CCCN(C(C)C)C4)c3cc2C(F)(F)F)cn2ncnc12` [Example 111, (R)-1-(1-isopropylpiperidin-3-yl)-5-(8-methoxy-[1,2,4]triazolo[1,5-a]pyridin-6-yl)-6-(trifluoromethyl)-1,3-dihydro-2H-benzo[d]imidazol-2-one], the IC50 is 9.94 µM. Against the preceding compound, the IC50 is about 2.1-fold lower.

`COc1cc(-c2cc3[nH]c(=O)n([C@@H]4CCCN(C)C4)c3cc2C(F)(F)F)cn2ncnc12` [Example 114, (R)-5-(8-methoxy-[1,2,4]triazolo[1,5-a]pyridin-6-yl)-1-(1-methylpiperidin-3-yl)-6-(trifluoromethyl)-1,3-dihydro-2H-benzo[d]imidazol-2-one] gave an IC50 of 0.618 µM.

Regarding `CCCN1CCC[C@@H](n2c(=O)[nH]c3cc(-c4cn5ncnc5c(C)c4C)c(C(C)C)cc32)C1` [Example 150, (R)-5-(7,8-dimethyl-[1,2,4]triazolo[1,5-a]pyridin-6-yl)-6-isopropyl-1-(1-propylpiperidin-3-yl)-1,3-dihydro-2H-benzo[d]imidazol-2-one], 11.9 µM corresponded to half-maximal inhibition (IC50).

In the case of `CCCN1CCC[C@@H](n2c(=O)[nH]c3cc(-c4cc(OC)c5ncnn5c4)c(C(C)C)cc32)C1` [Example 134, (R)-6-isopropyl-5-(8-methoxy-[1,2,4]triazolo[1,5-a]pyridin-6-yl)-1-(1-propylpiperidin-3-yl)-1,3-dihydro-2H-benzo[d]imidazol-2-one], the IC50 is 9.33 µM.
